From patent US12421222B2 (AUGUSTINE THERAPEUTICS, priority 2021, dated 2025)
Blank lines part the entries; values can stand above or below the molecule they belong to.

Test system: acetylated tubulin (Lys40) in HeLa cells
Test: Acetylated α-tubulin measurement in vitro (immunocytochemistry)
Assay type: cell-based
Conditions: Homo sapiens, 6 hours incubation, acetylated tubulin (Lys40) by immunocytochemistry, read-out: IC50 (Tubulin deacetylation)
Method in brief: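 HeLa cells in serum-free medium treated 6 h at 37 °C (final DMSO 0.1–0.4%), then PFA-fixed and immunostained for acetyl-Lys40 and total α-tubulin; high-content imaging.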

Compound: O=C(CO)NCc1ccc(C(=O)CSc2nc3ncc(C(F)(F)F)cc3o2)s1 [Example 118, 2-hydroxy-N-((5-(2-((6-(trifluoromethyl)oxazolo[4,5-b]157yrrolid-2-yl)thio)acetyl)thiophen-2-yl)methyl)acetamide]
IC50: 100 to 500 nM

Compound: Cc1nc(SCC(=O)c2ccc(CNC(=O)CO)s2)c2cc(C(F)(F)F)cnc2n1 [Example 119, 2-hydroxy-N-((5-(2-((2-methyl-6-(trifluoromethyl)pyrido[2,3-d]pyrimidin-4-yl)thio)acetyl)thiophen-2-yl)methyl)acetamide]
IC50: ≤ 100 nM

Compound: Cc1nc(SCC(=O)c2ccc(CNC(=O)C3CC3(F)F)s2)c2cc(OC(F)(F)F)ccc2n1 (stereo not shown) [Example 120, 2,2-difluoro-N-((5-(2-((2-methyl-6-(trifluoromethoxy)quinazolin-4-yl)thio)acetyl)thiophen-2-yl)methyl)cyclopropane-1-carboxamide]
IC50: 100 to 500 nM

Compound: COc1cc2c(SCC(=O)c3ccc(CNC(=O)CO)s3)nc(C)nc2cn1 [Example 121, 2-hydroxy-N-((5-(2-((6-methoxy-2-methylpyrido[3,4-d]pyrimidin-4-yl)thio)acetyl)thiophen-2-yl)methyl)acetamide]
IC50: ≤ 100 nM

Compound: O=C(CSc1nc(C(F)(F)F)nc2ncccc12)c1ccc(CNS(=O)(=O)C2CC2)s1 [Example 122, N-((5-(2-((2-(trifluoromethyl)pyrido[2,3-d]pyrimidin-4-yl)thio)acetyl)thiophen-2-yl)methyl)cyclopropanesulfonamide]
IC50: 100 to 500 nM

Compound: O=C(CSc1nc(C(F)(F)F)nc2ncccc12)c1ccc(CNS(=O)(=O)CC(F)(F)F)s1 [Example 123, 2,2,2-trifluoro-N-((5-(2-((2-(trifluoromethyl)pyrido[2,3-d]pyrimidin-4-yl)thio)acetyl)thiophen-2-yl)methyl)ethane-1-sulfonamide]
IC50: 100 to 500 nM

Compound: Cc1nc(SCC(=O)c2ccc(CNC(=O)CO)s2)c2cc(F)cnc2n1 [Example 124, N-((5-(2-((6-fluoro-2-methylpyrido[2,3-d]pyrimidin-4-yl)thio)acetyl)thiophen-2-yl)methyl)-2-hydroxyacetamide]
IC50: ≤ 100 nM

Compound: COCCn1ncc2c(SCC(=O)c3ccc(CNC(=O)CO)s3)nc(C(F)(F)F)nc21 [Example 125, 2-hydroxy-N-((5-(2-((1-(2-methoxyethyl)-6-(trifluoromethyl)-1H-pyrazolo[3,4-d]pyrimidin-4-yl)thio)acetyl)thiophen-2-yl)methyl)acetamide]
IC50: ≤ 100 nM

Compound: Cc1nc(SCC(=O)c2ccc(CNC(=O)CO)s2)c2cc(OC(F)(F)F)ccc2n1 [Example 126, 2-hydroxy-N-((5-(2-((2-methyl-6-(trifluoromethoxy)quinazolin-4-yl)thio)acetyl)thiophen-2-yl)methyl)acetamide]
IC50: ≤ 100 nM

Compound: CCS(=O)(=O)NCc1ccc(C(=O)CSc2nc(C(F)(F)F)nc3ncccc23)s1 [Example 127, N-((5-(2-((2-(trifluoromethyl)pyrido[2,3-d]pyrimidin-4-yl)thio)acetyl)thiophen-2-yl)methyl)ethanesulfonamide]
IC50: 100 to 500 nM

Compound: COc1ccc2nc(C)nc(SCC(=O)c3ccc([C@H](C)NC(=O)CO)s3)c2c1 [Example 128, (S)-2-hydroxy-N-(1-(5-(2-((6-methoxy-2-methylquinazolin-4-yl)thio)acetyl)thiophen-2-yl)ethyl)acetamide]
IC50: 100 to 500 nM

Compound: C[C@H](NC(=O)CO)c1ccc(C(=O)CSc2nc(C(F)(F)F)nc3c2cnn3C)s1 [Example 130, (S)-2-hydroxy-N-(1-(5-(2-((1-methyl-6-(trifluoromethyl)-1H-pyrazolo[3,4-d]pyrimidin-4-yl)thio)acetyl)thiophen-2-yl)ethyl)acetamide]
IC50: 100 to 500 nM

Compound: CN(Cc1ccc(C(=O)CSc2nc(C(F)(F)F)nc3ncccc23)s1)C(=O)CO [Example 131, 2-hydroxy-N-methyl-N-((5-(2-((2-(trifluoromethyl)pyrido[2,3-d]pyrimidin-4-yl)thio)acetyl)thiophen-2-yl)methyl)acetamide]
IC50: 100 to 500 nM

Compound: COCCn1cc2c(SCC(=O)c3ccc(CNC(=O)CO)s3)nc(C(F)(F)F)nc2n1 [Example 132, 2-hydroxy-N-((5-(2-((2-(2-methoxyethyl)-6-(trifluoromethyl)-2H-pyrazolo[3,4-d]pyrimidin-4-yl)thio)acetyl)thiophen-2-yl)methyl)acetamide]
IC50: ≤ 100 nM

Compound: O=C(CO)NCc1ccc(C(=O)CSc2nc(C(F)(F)F)nc3c2cnn3C2CC2)s1 [Example 133, N-((5-(2-((1-cyclopropyl-6-(trifluoromethyl)-1H-pyrazolo[3,4-d]pyrimidin-4-yl)thio)acetyl)thiophen-2-yl)methyl)-2-hydroxyacetamide]
IC50: 100 to 500 nM

Compound: COc1ccc2nc(C(F)(F)F)nc(SCC(=O)c3ccc(CNC(=O)C(C)(C)O)s3)c2c1 [Example 134, 2-hydroxy-N-((5-(2-((6-methoxy-2-(trifluoromethyl)quinazolin-4-yl)thio)acetyl)thiophen-2-yl)methyl)-2-methylpropanamide]
IC50: 100 to 500 nM

Compound: CCn1cc2c(SCC(=O)c3ccc(CNC(=O)CO)s3)nc(C(F)(F)F)nc2n1 [Example 135, N-((5-(2-((2-ethyl-6-(trifluoromethyl)-2H-pyrazolo[3,4-d]pyrimidin-4-yl)thio)acetyl)thiophen-2-yl)methyl)-2-hydroxyacetamide]
IC50: ≤ 100 nM

Compound: CCn1ncc2c(SCC(=O)c3ccc(CNC(=O)CO)s3)nc(C(F)(F)F)nc21 [Example 136, N-((5-(2-((1-ethyl-6-(trifluoromethyl)-1H-pyrazolo[3,4-d]pyrimidin-4-yl)thio)acetyl)thiophen-2-yl)methyl)-2-hydroxyacetamide]
IC50: 100 to 500 nM

Compound: COc1ccc2nc(C)nc(SCC(=O)c3ccc(CN4CCOCC4=O)s3)c2c1 [Example 137, 4-((5-(2-((6-methoxy-2-methylquinazolin-4-yl)thio)acetyl)thiophen-2-yl)methyl)morpholin-3-one]
IC50: 100 to 500 nM

Compound: O=C(CSc1nc(C(F)(F)F)nc2ncccc12)c1ccc(CN2CCOCC2=O)s1 [Example 138, 4-((5-(2-((2-(trifluoromethyl)pyrido[2,3-d]pyrimidin-4-yl)thio)acetyl)thiophen-2-yl)methyl)morpholin-3-one]
IC50: 100 to 500 nM

Next, values leading:

IC50: 100 to 500 nM
Compound: COc1ccc2nc(C(F)F)nc(SCC(=O)c3ccc(CNC(=O)CO)s3)c2c1 [Example 139, N-((5-(2-((2-(difluoromethyl)-6-methoxyquinazolin-4-yl)thio)acetyl)thiophen-2-yl)methyl)-2-hydroxyacetamide]

IC50: 100 to 500 nM
Compound: COc1cnc2nc(C)nc(SCC(=O)c3ccc(CNC(=O)CO)s3)c2c1 [Example 140, 2-hydroxy-N-((5-(2-((6-methoxy-2-methylpyrido[2,3-d]pyrimidin-4-yl)thio)acetyl)thiophen-2-yl)methyl)acetamide]

IC50: 100 to 500 nM
Compound: COc1ccc2nc(C)nc(SCC(=O)c3ccc(CN4CCC(O)C4=O)s3)c2c1 (stereo not shown) [Example 141, 3-hydroxy-1-((5-(2-((6-methoxy-2-methylquinazolin-4-yl)thio)acetyl)thiophen-2-yl)methyl)pyrrolidin-2-one]

IC50: ≤ 100 nM
Compound: Cc1nc(SCC(=O)c2ccc(CNC(=O)CO)s2)c2cc(Cl)cc(F)c2n1 [Example 142, N-((5-(2-((6-chloro-8-fluoro-2-methylquinazolin-4-yl)thio)acetyl)thiophen-2-yl)methyl)-2-hydroxyacetamide]

IC50: 100 to 500 nM
Compound: COc1cccc2nc(C)nc(SCC(=O)c3ccc(CNC(=O)CO)s3)c12 [Example 143, 2-hydroxy-N-((5-(2-((5-methoxy-2-methylquinazolin-4-yl)thio)acetyl)thiophen-2-yl)methyl)acetamide]

IC50: ≤ 100 nM
Compound: CCOc1ccc2nc(C)nc(SCC(=O)c3ccc(CNC(=O)CO)s3)c2c1 [Example 144, N-((5-(2-((6-ethoxy-2-methylquinazolin-4-yl)thio)acetyl)thiophen-2-yl)methyl)-2-hydroxyacetamide]

IC50: ≤ 100 nM
Compound: CCOc1cc2c(SCC(=O)c3ccc(CNC(=O)CO)s3)nc(C)nc2cn1 [Example 145, N-((5-(2-((6-ethoxy-2-methylpyrido[3,4-d]pyrimidin-4-yl)thio)acetyl)thiophen-2-yl)methyl)-2-hydroxyacetamide]

IC50: 100 to 500 nM
Compound: Cc1nc(SCC(=O)c2ccc(CNC(=O)CO)s2)c2c(F)c(Cl)ccc2n1 [Example 146, N-((5-(2-((6-chloro-5-fluoro-2-methylquinazolin-4-yl)thio)acetyl)thiophen-2-yl)methyl)-2-hydroxyacetamide]

IC50: ≤ 100 nM
Compound: COc1cc(C(F)(F)F)cc2c(SCC(=O)c3ccc(CNC(=O)CO)s3)nc(C)nc12 [Example 148, 2-hydroxy-N-((5-(2-((8-methoxy-2-methyl-6-(trifluoromethyl)quinazolin-4-yl)thio)acetyl)thiophen-2-yl)methyl)acetamide]

IC50: ≤ 100 nM
Compound: Cc1nc(SCC(=O)c2ccc(CNC(=O)CO)s2)c2cc(N(C)C)ncc2n1 [Example 149, N-((5-(2-((6-(dimethylamino)-2-methylpyrido[3,4-d]pyrimidin-4-yl)thio)acetyl)thiophen-2-yl)methyl)-2-hydroxyacetamide]

IC50: 100 to 500 nM
Compound: Cc1nc(SCC(=O)c2ccc(CNC(=O)CO)s2)c2cc(C(F)(F)F)cc(N(C)C)c2n1 [Example 150, N-((5-(2-((8-(dimethylamino)-2-methyl-6-(trifluoromethyl)quinazolin-4-yl)thio)acetyl)thiophen-2-yl)methyl)-2-hydroxyacetamide]

IC50: 1000 to 3330 nM
Compound: CNc1cc(C(F)(F)F)cc2c(SCC(=O)c3ccc(CNC(=O)CO)s3)nc(C)nc12 [Example 151, 2-hydroxy-N-((5-(2-((2-methyl-8-(methylamino)-6-(trifluoromethyl)quinazolin-4-yl)thio)acetyl)thiophen-2-yl)methyl)acetamide]

IC50: ≤ 100 nM
Compound: O=C(CO)NCc1ccc(C(=O)CSc2nc(C(F)(F)F)nc3cccnc23)s1 [Example 152, 2-hydroxy-N-((5-(2-((2-(trifluoromethyl)pyrido[3,2-d]pyrimidin-4-yl)thio)acetyl)thiophen-2-yl)methyl)acetamide]

IC50: ≤ 100 nM
Compound: Cc1nc(SCC(=O)c2ccc(CNC(=O)CO)s2)c2ncccc2n1 [Example 153, 2-hydroxy-N-((5-(2-((2-methylpyrido[3,2-d]pyrimidin-4-yl)thio)acetyl)thiophen-2-yl)methyl)acetamide]
